In PubChem BioAssay (NCI):
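Exposure lasted 48 hours, with cells grown in 96-well plates and compounds tested at five concentrations. At the TGI there is no net growth.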

Experiments:
Test in all cases: inhibition of tumour cell growth, NCI panel, 48 h
[1] = system: SW-620 colon
[2] = system: IGROV1 ovarian
[3] = system: SF-268 CNS
[4] = system: MDA-MB-435
[5] = system: COLO 205 colon
[6] = system: NCI-H460 lung
[7] = system: SNB-19 CNS
[8] = system: UACC-62 melanoma
[9] = system: OVCAR-3 ovarian
[10] = system: NCI-H226 lung
[11] = system: PC-3 prostate
[12] = system: EKVX NSCLC
[13] = system: TK-10 renal
[14] = system: HCT-116 colon
[15] = system: SK-MEL-28 melanoma
[16] = system: OVCAR-5 ovarian
[17] = system: NCI/ADR-RES ovarian
[18] = system: CCRF-CEM leukemia
[19] = system: UACC-257 melanoma

| Structure (SMILES) | TGI [1] [µM] | TGI [2] [µM] | TGI [3] [µM] | TGI [4] [µM] | TGI [5] [µM] | TGI [6] [µM] | TGI [7] [µM] | TGI [8] [µM] | TGI [9] [µM] | TGI [10] [µM] | TGI [11] [µM] | TGI [12] [µM] | TGI [13] [µM] | TGI [14] [µM] | TGI [15] [µM] | TGI [16] [µM] | TGI [17] [µM] | TGI [18] [µM] | TGI [19] [µM] |
| --- | --- | --- | --- | --- | --- | --- | --- | --- | --- | --- | --- | --- | --- | --- | --- | --- | --- | --- | --- |
| Cc1c(CCN2CCOCC2)c(N2CCOCC2)n2c(nc3ccccc32)c1C#N | > 10 | > 10 | > 10 | > 10 | > 10 | > 10 | > 10 | > 10 | > 10 | > 10 | > 10 | > 10 | > 10 | > 10 | > 10 | > 10 | > 10 | > 10 | > 10 |
| CSC1=Nc2ccccc2-c2nc3ccccc3cc2C1 | – | > 100 | > 100 | > 100 | > 100 | > 100 | > 100 | > 100 | > 100 | > 100 | > 100 | > 100 | > 100 | > 100 | > 100 | > 100 | > 100 | > 100 | > 100 |
| CC(C)(C)OCC1NC(=O)[C@@H]2Cc3c([nH]c4ccccc34)C(c3ccccc3)N2C1=O (stereo partly specified) | > 50 | > 50 | > 50 | > 50 | > 50 | > 50 | > 50 | > 50 | > 50 | > 50 | > 50 | > 50 | > 50 | > 50 | > 50 | > 50 | > 50 | > 50 | > 50 |
| CC1CN=C(Nc2ccccc2)S1 (stereo unspecified) | > 100 | > 100 | > 100 | > 100 | > 100 | > 100 | > 100 | > 100 | > 100 | > 100 | > 100 | > 100 | > 100 | > 100 | > 100 | > 100 | > 100 | > 100 | > 100 |
| O=C1c2ccccc2CN1c1ccc(OCCN2CCCCC2)cc1 | > 10 | > 10 | > 10 | > 10 | > 10 | > 10 | > 10 | > 10 | > 10 | > 10 | > 10 | > 10 | > 10 | > 10 | > 10 | > 10 | > 10 | > 10 | > 10 |
| C=CC1CCC[N+]1(CC(=O)OCC)Cc1ccccc1 (stereo unspecified) | > 100 | > 100 | > 100 | > 100 | > 100 | > 100 | > 100 | > 100 | > 100 | > 100 | > 100 | > 100 | > 100 | > 100 | > 100 | > 100 | > 100 | > 100 | > 100 |
| C/C(=N\n1c(Cc2ccccc2)n[nH]c1=O)c1ccccc1 | > 100 | > 100 | > 100 | > 100 | > 100 | – | > 100 | > 100 | – | > 100 | > 100 | > 100 | > 100 | > 100 | > 100 | > 100 | > 100 | > 100 | > 100 |
| N#CC1C(=O)SC2c3ccccc3C(=O)c3ccccc3C12 (stereo unspecified) | > 10 | > 10 | > 10 | > 10 | > 10 | > 10 | > 10 | > 10 | > 10 | > 10 | > 10 | > 10 | > 10 | > 10 | > 10 | > 10 | > 10 | > 10 | > 10 |
| COc1cccc2c1CCc1c(-c3ccc(F)cc3)cc(-c3ccc4ccccc4n3)nc1-2 | > 100 | > 100 | > 100 | > 100 | > 100 | > 100 | > 100 | > 100 | > 100 | > 100 | > 100 | > 100 | > 100 | > 100 | – | > 100 | > 100 | > 100 | > 100 |
| COC(=O)[C@]12CC[C@H]3CC[C@H]([C@H]31)[C@H](c1ccccc1)N2 | 53.2 | 34.3 | 41.5 | 34.6 | 30.8 | 31.2 | 47.3 | 29.1 | 29.3 | 31.6 | 38.7 | 33.1 | 32 | 29.5 | 52.2 | 31.4 | 33.4 | 95.9 | 29.6 |
| O=C(CC(C(=O)c1cccs1)c1cccs1)c1ccsc1 (stereo unspecified) | > 100 | > 100 | > 100 | 43.1 | > 100 | > 100 | > 100 | > 100 | – | > 100 | > 100 | > 100 | > 100 | > 100 | > 100 | > 100 | > 100 | > 100 | > 100 |
| c1ccc(C2=NCCN2)c(C2=NCCN2)c1 | > 100 | > 100 | > 100 | > 100 | > 100 | > 100 | > 100 | > 100 | > 100 | > 100 | > 100 | > 100 | > 100 | > 100 | > 100 | > 100 | > 100 | > 100 | > 100 |
| CN(C)CCCNc1ccc2c(=O)n(CCN(C)C)c(=O)n3c4ccccc4c(=O)c1c23 | – | 4.33 | 11.8 | 0.885 | 1.22 | 1.06 | 3.02 | 1.56 | 3.35 | 2.53 | 1.81 | 3.02 | 2.28 | – | 2.57 | 1.89 | 4.02 | > 100 | 2.05 |
| CCN(CC)c1ccc2cc(C(N)=S)c(=N)oc2c1 | > 100 | > 100 | > 100 | > 100 | > 100 | > 100 | > 100 | > 100 | – | > 100 | > 100 | > 100 | > 100 | > 100 | > 100 | > 100 | > 100 | > 100 | > 100 |
| O=c1c2cc(-c3ccccc3)sc2nc2n1N=C(c1ccc(Cl)cc1)CS2 | > 100 | > 100 | > 100 | > 100 | > 100 | > 100 | – | > 100 | > 100 | > 100 | > 100 | > 100 | > 100 | > 100 | > 100 | > 100 | > 100 | > 100 | > 100 |
| COc1ccc(/C=C2\CN(C)C/C(=C\c3ccc(OC)cc3)C2=O)cc1 | > 100 | > 100 | > 100 | > 100 | > 100 | > 100 | > 100 | > 100 | > 100 | > 100 | > 100 | > 100 | > 100 | > 100 | > 100 | > 100 | > 100 | > 100 | – |
| Cc1cccc(C)c1NC(=O)C(=O)CC(=O)/C=C/c1ccccc1 | > 100 | > 100 | > 100 | > 100 | – | > 100 | > 100 | > 100 | > 100 | > 100 | > 100 | > 100 | > 100 | > 100 | > 100 | > 100 | > 100 | > 100 | > 100 |
| CCC(C(=O)C(=O)C(CC)P1(=O)OC(C)(C)CN1C(C)(C)C)P1(=O)OC(C)(C)CN1C(C)(C)C (stereo unspecified) | > 100 | > 100 | > 100 | > 100 | > 100 | > 100 | > 100 | > 100 | > 100 | > 100 | > 100 | > 100 | > 100 | > 100 | > 100 | – | > 100 | > 100 | > 100 |
| CC(O)c1cc2c(s1)C(=O)c1ccsc1C2=O (stereo unspecified) | 0.511 | 1.25 | 0.679 | 0.026 | 3.23 | – | 0.553 | 0.0733 | 0.169 | 1.32 | 0.158 | 0.551 | 1.32 | 2.72 | 0.0328 | 0.3 | 0.743 | 0.781 | 0.0688 |
| CO[C@@H]1C[C@H]2[C@@H]3CC[C@H]([C@@H](C)CO)[C@@]3(C)CC[C@@H]2[C@@]2(C)CC[C@H]3C[C@]312 | > 100 | > 100 | > 100 | > 100 | 31.4 | 43.1 | > 100 | – | > 100 | 59.9 | 57.3 | > 100 | > 100 | > 100 | 83.5 | > 100 | 93 | > 100 | 71.9 |
